The nature of data set [1]: WST-1 cytotoxicity test, MRC-5. Type of data set: cell-based. As to conditions: human, MRC-5 cells, read-out: relative viability (%) compared to untreated control; for viability at 48 h, 10 µM: MRC-5, 10 µM. How it is done:
(§1) In this study, the cytotoxic effects of nine new compounds (2, 3, 4, 5, 6, 7, 8, 9, 10) were tested on 10 human cell lines (nine cancer and one non-cancer cell line). The cell lines were treated with each compound at concentrations of 10 µM and 100 µM for 48 h. The proliferation capacity of the treated cells was determined by WST-1 test and compared against the proliferation rate of the untreated control cells (100%).
(§2) The cell lines Jurkat, MOLT-4, A2780, A549, HT-29, PANC-1, HeLa, MCF-7, SAOS-2, and MRC-5 (all purchased from Sigma Aldrich, Czech Republic) were included in this study. All cell lines were maintained according to the provider’s guidelines, and plated and treated in 96-well plates (500 to 30 × 10^3 cells per well). The tested compounds 2, 3, 4, 5, 6, 7, 8, 9, and 10 were dissolved in 0.1% DMSO and kept in 10 mM stock solutions. Before use, the stock solution was diluted in culture media at ratios of 1:100 and 1:1000. The studied cell lines were treated with the compounds 2, 3, 4, 5, 6, 7, 8, 9, and 10 at concentrations of 10 and 100 µM for 48 h. Control cells were tested in culture media with and without DMSO (0.1%). The cells were also treated with 1 µM doxorubicin as a cytotoxicity control.
(§3) The WST-1 (2-(4-iodophenyl)-3-(4-nitrophenyl)-5-(2,4-disulfophenyl)-2H-tetrazolium, monosodium salt) test (Roche, Mannheim, Germany) was used according to the manufacturer’s protocol to determine cell viability in all 10 cell lines 48 h after treatment with the tested compounds. The cells were analyzed in a Tecan Infinite M200 spectrometer (Tecan Group, Männedorf, Switzerland) at 440 nm.

A short description of data set [2]: WST-1 cytotoxicity test, MOLT-4. As to conditions: human, MOLT-4 cells, read-out: relative viability (%) compared to untreated control; for viability at 48 h, 10 µM: MOLT-4, 10 µM. Type of data set: cell-based. How it is done:
as §1, §2, §3
(In general: Tetrazolium assays rely on reduction of a dye to a coloured formazan, in cell work by metabolically active cells.)

Data set [3] in a line: WST-1 cytotoxicity test, A549. Type of data set: cell-based. As to conditions: human, A549 cells, read-out: relative viability (%) compared to untreated control; for viability at 48 h, 10 µM: A549, 10 µM. How it is done:
as §1, §2, §3

Data set [4] is described as follows: WST-1 cytotoxicity test, MCF-7. The class given is cell-based. As to conditions: human, MCF-7 cells, read-out: relative viability (%) compared to untreated control; for viability at 48 h, 10 µM: MCF-7, 10 µM. How it is done:
as §1, §2, §3

Data set [5] can be described thus: WST-1 cytotoxicity test, PANC-1. The class given is cell-based. As to conditions: human, PANC-1 cells, read-out: relative viability (%) compared to untreated control; for viability at 48 h, 10 µM: PANC-1, 10 µM. How it is done: as §1, §2, §3
A short description of data set [6]: WST-1 cytotoxicity test, Jurkat. The class given is cell-based. As to conditions: human, Jurkat cells, read-out: relative viability (%) compared to untreated control. How it is done: as §1, §2, §3
A short description of data set [7]: WST-1 cytotoxicity test, A2780. The class given is cell-based. As to conditions: human, A2780 cells, read-out: relative viability (%) compared to untreated control; for viability at 48 h, 10 µM: A2780, 10 µM. How it is done: as §1, §2, §3
Data set [8] in a line: WST-1 cytotoxicity test, SAOS-2. The class given is cell-based. As to conditions: human, SAOS-2 cells, read-out: relative viability (%) compared to untreated control; for viability at 48 h, 10 µM: SAOS-2, 10 µM. How it is done: as §1, §2, §3
Data set [9] can be described thus: WST-1 cytotoxicity test, HT-29. The class given is cell-based. As to conditions: human, HT-29 cells, read-out: relative viability (%) compared to untreated control; for viability at 48 h, 10 µM: HT-29, 10 µM. How it is done:
as §1, §2, §3

A short description of data set [10]: WST-1 cytotoxicity test, HeLa. The class given is cell-based. As to conditions: human, HeLa cells, read-out: relative viability (%) compared to untreated control. How it is done: as §1, §2, §3
The test system of data set [11] is 10 human cell lines (nine cancer and one non-cancer cell line). The data set can be described thus: WST-1 cytotoxicity test, statements over all cell lines. The class given is cell-based. As to conditions: 48 h. How it is done:
as §1, §2, §3

Data set [12] deals with A549 cells. The data set is described as follows: MTT assay, IC50 and MTC. As to conditions: for MTC (maximum tolerated concentration): 24 h of treatment; for IC50: Homo sapiens, A549, 24 h, read-out: IC50 ± SEM.
Data set [13] can be described thus: WST-1 cytotoxicity test, statements over all cell lines. Type of data set: cell-based, human. As to conditions: human, 10 µM, across all the 10 cell lines tested, read-out: percentage of viable cells. How it is done: as §1, §2, §3
[14] abbreviates: doxorubicin 1 µM cytotoxicity control, WST-1, mean ± SD.
The mark [15] stands for this setting: 48 h, WST-1, mean ± SD of three experiments.
The mark [16] stands for this setting: 100 µM, 48 h, WST-1, mean ± SD of three experiments.

Where only a bound is given, the exact number is not on record here.

Turning to `COc1cccc2c1C(=O)c1c(O)c3c(c(O)c1C2=O)C[C@@](O)(C(=O)CO)C[C@@H]3O[C@H]1C[C@H](N)[C@H](O)[C@H](C)O1` [DOX, doxorubicin, reference compound], the viability at 48 h, 1 µM in data set [1] (MRC-5, doxorubicin 1 µM cytotoxicity control, WST-1, mean ± SD) was 22 ± 2%; in data set [2] (MOLT-4, doxorubicin 1 µM cytotoxicity control, WST-1, mean ± SD), 1%; in data set [3] (A549, doxorubicin 1 µM cytotoxicity control, WST-1, mean ± SD), 42 ± 11%; in data set [4] (MCF-7, doxorubicin 1 µM cytotoxicity control, WST-1, mean ± SD), 32 ± 3%; in data set [5] (PANC-1, doxorubicin 1 µM cytotoxicity control, WST-1, mean ± SD) it was 78 ± 7%; in [6] (setting [14]), 2%. Besides, the viability at 48 h, 1 µM in data set [7] (A2780, doxorubicin 1 µM cytotoxicity control, WST-1, mean ± SD) was 8 ± 4%; in data set [8] (SAOS-2, doxorubicin 1 µM cytotoxicity control, WST-1, mean ± SD) it was 22 ± 4%; in data set [9] (HT-29, doxorubicin 1 µM cytotoxicity control, WST-1, mean ± SD), 55 ± 18%; in data set [10] (setting [14]), 76 ± 12%.
A word on the melting point: it is the temperature, or range, at which the solid turns liquid. One may read the IC50 as the concentration at which inhibition is half-maximal. In turn, `COc1ccc2nc3c(c(NCCN4CCN(CCO)CC4)c2c1)CCCC3.Cl.Cl.Cl` [Compound 3, 7-Methoxy-N-{2-[4-(2-hydroxyethyl)piperazin-1-yl]ethyl}-1,2,3,4-tetrahydroacridin-9-amine trihydrochloride] displayed a melting point of 157 to 158 °C. Also, the viability at 48 h, 10 µM in [1] (setting [15]) came out at 84 ± 2%. The viability at 48 h, 100 µM in [1] (MRC-5, 100 µM, 48 h, WST-1, mean ± SD of three experiments) was 9 ± 6%. Besides, the viability at 48 h, 10 µM in data set [2] (setting [15]) turned out to be 81 ± 13%. Further, the viability at 48 h, 100 µM in [2] (MOLT-4, 100 µM, 48 h, WST-1, mean ± SD of three experiments) amounted to 2%. The viability at 48 h, 10 µM in data set [3] (setting [15]) was found to be 94 ± 15%. In addition, the viability at 48 h, 100 µM in [3] (A549, 100 µM, 48 h, WST-1, mean ± SD of three experiments) was found to be 13 ± 2%. For the same compound, the viability at 48 h, 10 µM in [4] (setting [15]) was 84 ± 9%. Further, the viability at 48 h, 100 µM in [4] (MCF-7, 100 µM, 48 h, WST-1, mean ± SD of three experiments) was 10 ± 2%. In data set [11] (100 µM, all the tested cell lines), the “decrease of cell viability” value is reported as not below 70%. The “cytotoxic effect (in words)” value in data set [11] (100 µM, studied cell lines) is recorded as “highly cytotoxic”. In addition, the viability at 48 h, 10 µM in [5] (setting [15]) came out at 78 ± 6%. For the same compound, the viability at 48 h, 100 µM in data set [5] (PANC-1, 100 µM, 48 h, WST-1, mean ± SD of three experiments) turned out to be 30 ± 4%. Besides, the viability at 48 h, 10 µM in [6] (setting [15]) was determined as 95 ± 9%. For the same compound, the viability at 48 h, 100 µM in [6] (setting [16]) is 12 ± 5%. The viability at 48 h, 10 µM in [7] (setting [15]) was determined as 84 ± 7%. The viability at 48 h, 100 µM in [7] (A2780, 100 µM, 48 h, WST-1, mean ± SD of three experiments) was found to be 20 ± 5%. For the same compound, the viability at 48 h, 10 µM in [8] (setting [15]) came to 80 ± 4%. Besides, the viability at 48 h, 100 µM in data set [8] (SAOS-2, 100 µM, 48 h, WST-1, mean ± SD of three experiments) came to 10 ± 2%. Besides, in data set [12] (A549 cells, MTT), the “IC50 fold higher than that for compound 2” value is recorded as 3.5 fold and the “MTC (maximum tolerated concentration)” value is recorded as 0.01 mM. Also, the IC50 in [12] turned out to be 140 ± 10 µM. Further, the viability at 48 h, 10 µM in data set [9] (setting [15]) came out at 85 ± 11%. Besides, in data set [9] (HT-29, 100 µM, 48 h, WST-1, mean ± SD of three experiments), the viability at 48 h, 100 µM worked out at 14 ± 5%. Also, the viability at 48 h, 10 µM in data set [10] (setting [15]) was determined as 104 ± 13%. The viability at 48 h, 100 µM in data set [10] (setting [16]) came out at 11 ± 3%.
For the compound `COc1ccc2nc3c(c(NCCN4CCNCC4)c2c1)CCCC3.Cl.Cl.Cl` [Compound 2, 7-Methoxy-N-(2-(piperazin-1-yl)ethyl)-1,2,3,4-tetrahydroacridin-9-amine trihydrochloride], the melting point lay within 172 to 173 °C. In addition, the viability at 48 h, 10 µM in data set [1] (setting [15]) was determined as 23 ± 2%. Further, in [2] (setting [15]), the viability at 48 h, 10 µM amounted to 0%. Further, the viability at 48 h, 10 µM in [3] (setting [15]) turned out to be 27 ± 3%. Further, the viability at 48 h, 10 µM in [4] (setting [15]) stood at 15 ± 1%. Moreover, the viability at 48 h, 10 µM in data set [13] was less than 44%. Moreover, the “cytotoxic effect (in words)” value in data set [11] (10 µM, tested cell lines) is recorded as “highly cytotoxic”. Also, the viability at 48 h, 10 µM in data set [5] (setting [15]) is 39 ± 2%. In addition, in data set [6] (setting [15]), the viability at 48 h, 10 µM was 31 ± 14%. Also, the viability at 48 h, 10 µM in data set [7] (setting [15]) amounted to 44 ± 9%. The viability at 48 h, 10 µM in [8] (setting [15]) turned out to be 28 ± 2%. Also, the “MTC (maximum tolerated concentration)” value in data set [12] (A549 cells, MTT) stood at 0.002 mM. In addition, the IC50 in data set [12] came to 40 ± 2 µM. In addition, the viability at 48 h, 10 µM in data set [9] (setting [15]) was determined as 28 ± 6%. Further, the viability at 48 h, 10 µM in [10] (setting [15]) is 25 ± 1%.
